No end group written: not given here.
Key:
4-Hydroxynonenal (HNE) = assay: Cellular stress immunohistochemistry, HNE; assay type: in vivo, SAMR1 mice; details: mice treated for 2 weeks, compared to saline-treated mice
Method: (§1) To determine the acute effects of pramilide on potential mechanisms associated with cognitive function a total of 12 control mice (SAMR1) 9 months of age were used to measure the effects of pramlintide on hippocampal neurogenesis. Half of the mice (n=6) were infused by minipump with pramlintide for a total of two weeks, while the other half (n=6) received minipumps filled with saline. For the last seven days of the experiment, all mice received daily intraperitoneal injections of 50 mg/kg BRDU (Sigma, St Louis, […].) dissolved in 0.9% saline and filtered at […]. One day after the last BRDU injection, mice were deeply anesthetized and transcranially perfused using 4% paraformaldehyde in 0.9% saline. The brains were then extracted and post-fixed in 4% paraformaldehyde for 24 hours, after which they were placed in a 30% sucrose solution for three days. All brains were quick-frozen and then cut into 40 μm sagital sections using a cryostatand stored at 4° C. as floating sections.
(§2) To determine whether pramilide had more acute neuroprotective effects in non-pathological conditions, sections from the same mice used for neurogenesis were used to determine markers of cellular stress. […]
(§3) Tissue sections were quantified. […] Six fields across the hippocampus were drawn and % staining within that field was measured using Metamorph software. […]

HO-1 = assay: Western blotting of hippocampal HO-1; assay type: in vivo; details: SAMP8 mice, 5 weeks, compared to saline-treated mice
Method: (§4) All SAMP8 mice were sacrificed by lethal overdose 5 weeks after the initiation of the pramlintide and saline treatments. The brains were harvested and the hippocampus was dissected and homogenized in protease and phosphatase inhibitor-supplemented 1×RIPA lysis/extraction buffer (Pierce). Total protein was quantified using the BCA Protein Assay Kit (Pierce). 10-20 μg of protein was run in a 10% SDS-PAGE gel and the protein was transferred onto Polyvinylidene fluoride (PVDF) membranes (Millipore). After blocking for one hour in 5% milk, the membranes were incubated overnight at 4° C. in the primary antibody at a 1:1000 dilution, followed by a 1-hour incubation with HRP-conjugated IgG at a 1:10,000 dilution. Primary antibodies used were CDK5 (Millipore), P35/P25 (Millipore), Synapsin I (Santa Cruz), and HO-1 (Gift from Dr. Zhu). The blots were developed using Immobilon Western Chemiluminescent HRP Substrate (Millipore) and imaged using FluorChem M (ProteinSimple). Membranes were stripped using Restore Western Blot Stripping Buffer (Thermo Scientific) for reprobing. Quantifications were performed using ImageJ software.

p35, p25 = assay: Western blotting of hippocampal p35/p25; assay type: in vivo; details: hippocampus, SAMP8 mice, five weeks, vs saline
Method: as §4

CDK5 = assay: Western blotting of hippocampal CDK5; assay type: in vivo; details: SAMP8 mice treated five weeks, relative to saline-treated group
Method: as §4

cyclooxygenase 2 (COX-2) = assay: Cellular stress immunohistochemistry, COX-2; assay type: in vivo, SAMR1 mice; details: mice treated for 2 weeks, compared to saline-treated mice
Method: as §1, §2, §3

synapsin I = assay: Western blotting of hippocampal synapsin I; assay type: in vivo; details: SAMP8 mice treated five weeks, vs saline
Method: as §4

[1] = Body weight change during 5-week pramlintide minipump infusion; assay type: in vivo; details: over 5-week treatment period, 0.24 mg/kg/day s.c. minipump, SAMP8 mice
Method: SAMP8 and SAM-resistant 1 (SAMR1) mice were obtained from an established colony at Case Western Reserve University. All animals were group housed, provided ad libitum access to a standard diet and water, and were exposed to a 12/12 light/dark daily cycle. The mice were housed under pathogen-free conditions at a temperature of 21±1.5° C.
(§5) All SAMP8 mice were treated with either saline or pramlintide beginning at 6 months of age. A subcutaneous ALZET® osmotic minipump (Model 2002, Durect Corp., Cupertino, Calif., USA) was surgically implanted into all mice as described previously^26. The osmotic mini-pump infused 0.24 mg/kg/day pramlintide acetate (0.6 mg/mL pramlintide, Amylin Pharmaceuticals, Inc., San Diego, Calif.) or saline at a rate of 0.5 μL/hr. Pumps were replaced with new refilled pumps every two weeks throughout the study duration. All animals were weighed weekly throughout the course of the experiment.
To investigate the effects of pramlintide on memory, SAMP8 mice were continually infused with saline or pramlintide for a total of five weeks. Consistent with pramlintide's known anorexic effect, the pramlintide-treated mice experienced a change in body weight of −5.8% (Std=4.7) over the course of the treatment period as compared to a weight change of −0.1% (6.1) for the saline-treated mice. […]

SAMP8 mice [2] = assay: Object recognition task; assay type: in vivo; details: 7-month SAMP8 mice
Method: as §5
A total of 20 SAMP8 mice were used in the object recognition task. […] The mice were allowed to explore the environment for 10 minutes, during which their movements were recorded with a tracking system. […]
Videos recordings of the retention session were scored by an investigator blinded to the treatment groups. Object exploration, defined as the duration of time in which the head of the mouse faced less than ½ cm from the object, was measured during the training and retention sessions. The frequency of object exploration was also recorded, as well as the frequency and time spent rearing and grooming to determine general exploratory behavior. […] The recognition index was calculated as the percent of time spent exploring the novel object versus the total time spent exploring the objects.

[3] = system: BrdU-positive cells in the dentate gyrus; assay: BrdU immunostaining, hippocampal neurogenesis; assay type: in vivo; details: 9-month SAMR1 mice, two weeks minipump, compared to saline-treated mice
Method: as §1
BRDU immunohistochemistry was performed as previously described. […]
A validated sterology protocol was used to quantify BrdU-labeled cells in the dentate gyrus. […] All BrdU-positive cells in the dentate gyrus of the hippocampus were counted in every 6th section through the hippocampus, for a total of 12 sections per animal. […]

SAMP8 mice [4] = assay: Morris water maze (learning, probe and retention trials); assay type: in vivo; details: chronic amylin; for MWM maze learning: acute leptin at time of testing, FIGS. 10 and 11
From the text: In this Example, we examined whether chronic amylin administration has beneficial effects on cognition using senescence-accelerated SAMP8 mice, a validated animal model of mild cognitive impairment (MCI)/early Alzheimer's disease (AD) in which the mice experience premature cognitive deficits. Given that the anorectic effects of amylin are specifically synergistic with another metabolic hormone, leptin, we also studied whether amylin's effects on cognition might be enhanced when used in conjunction with leptin.
(§6) To validate the hypothesis that amylin is a cognitive enhancing drug that can be given alone and that may provide benefit for cognitive dysfunction associated diseases such as AD or age-related cognitive dysfunction (normal or Mild cognitive impairment (MCI)), we determined the ability of chronic treatment with amylin to improve cognitive function in the Morris water maze and object recognition tasks in the age accelerated SAMP8 mouse model, a model of MCI/early AD. […] Furthermore, improvement of amylin treatment in the retention trial, carried out 24 hrs reflects the ability of amylin to improve consolidation to long-term, permanent memory. (FIG. 9).
(§7) We were able to test this hypothesis under chronic amylin treatment and acute delivery of leptin at time of testing in SAMP8 mice. […] The slope of curve for the SAMP8 mice treated with a combination of amylin and leptin was the steepest […]. […] Novel object recognition testing, another cognition-based test, supported our findings in the MWM. […] It is important to note that these studies were carried out in cognitively impaired animals with leptin treatments under acute conditions. As such, it is likely that the lack of observable synergistic additive magnitude derives from insufficient length of leptin treatment.

SAMP8 mice [5] = assay: Novel object recognition testing; assay type: in vivo; details: chronic amylin, leptin delivered acutely, vs saline, FIG. 13
From the text: as §6, §7

## CC[C@H](C)[C@H](NC(=O)[C@@H]1CCCN1C(=O)CNC(=O)[C@H](Cc1ccccc1)NC(=O)[C@H](CC(N)=O)NC(=O)[C@H](CC(N)=O)NC(=O)[C@H](CO)NC(=O)[C@H](CO)NC(=O)[C@H](Cc1c[nH]cn1)NC(=O)[C@@H](NC(=O)[C@H](CC(C)C)NC(=O)[C@H](Cc1ccccc1)NC(=O)[C@H](CC(N)=O)NC(=O)[C@H](C)NC(=O)[C@H](CC(C)C)NC(=O)[C@H](CCCNC(=N)N)NC(=O)[C@H](CCC(N)=O)NC(=O)[C@@H](NC(=O)[C@H](C)NC(=O)[C@@H]1CSSC[C@H](NC(=O)[C@@H](N)CCCCN)C(=O)N[C@@H](CC(N)=O)C(=O)N[C@@H]([C@@H](C)O)C(=O)N[C@@H](C)C(=O)N[C@@H]([C@@H](C)O)C(=O)N1)[C@@H](C)O)C(C)C)C(=O)N[C@@H](CC(C)C)C(=O)N1CCC[C@H]1C(=O)N1CCC[C@H]1C(=O)N[C@H](C(=O)N[C@@H](CC(N)=O)C(=O)N[C@H](C(=O)NCC(=O)N[C@@H](CO)C(=O)N[C@@H](CC(N)=O)C(=O)N[C@H](C(=O)N[C@@H](Cc1ccc(O)cc1)C(N)=O)[C@@H](C)O)C(C)C)[C@@H](C)O [pramlintide]
4-Hydroxynonenal (HNE)
  HNE immunostaining in the hippocampus: trend toward decreased
HO-1
  expression of the protein HO-1 in the hippocampus: significantly decreased
p35, p25
  amount of cleavage product p25: no differences
  amount of the CDK5 activator p35: no differences
  ratio of p25/p35: no differences
CDK5
  hippocampal expression of the protein CDK5: significantly increased
Cyclooxygenase 2 (COX-2)
  COX-2 immunostaining in the hippocampus: significant decreases
Synapsin I
  hippocampal expression of synapsin I: significantly increase
[1]
  change in body weight: −5.8%
SAMP8 mice [2]; 5 weeks infusion, retention test 3 hours after training, vs saline
  recognition index: 0.67 (Std=0.06)
SAMP8 mice [2]; chronic treatment, vs saline-treated controls
  difference score (recognition memory): significantly increased
[3]
  more BrdU-positive cells in the dentate gyrus: 40%

## amylin: 37-amino acid polypeptide hormone normally co-secreted with insulin by pancreatic beta cells (KCNTATCATQRLANFLVHSSNNFGAILSSTNVGSNTY; not fully specified (C-terminus, bridges); cysteine pairing not given here; UniProt P10997 34-70, looked up)
SAMP8 mice [4]; SAMP8 (P8) vs non-treated P8, FIG. 8
  learning of the MWM task: potent effect on learning
SAMP8 mice [4]; SAMP8 vs non-treated P8, FIG. 9
  MWM probe trial: perform better than non-treated P8
SAMP8 mice [4]; SAMP8 mice
  MWM maze learning: improved
SAMP8 mice [4]; retention carried out 24 hrs, FIG. 9
  MWM retention trial: improvement

B1: leptin: metabolic hormone, delivered acutely at time of testing (protein, UniProt P41160 22-167, looked up)
Leptin: VPIQKVQDDTKTLIKTIVTRINDISHTQSVSAKQRVTGLDFIPGLHPILSLSKMDQTLAVYQQVLTSLPSQNVLQIANDLENLRDLLHLLAFSKSCSLPQTSGLQKPESLDGVLEASLYSTEVVALSRLQGSLQDILQQLDVSPEC
SAMP8 mice [4]; SAMP8 mice
  MWM maze learning: improved
SAMP8 mice [4]; acute leptin, SAMP8 mice, compared to saline, FIG. 12
  MWM probe/retention trials: no benefits
SAMP8 mice [5]
  novel object recognition, discrimination ratio: no benefits
